Assay results as given in patent publication US20100069249A1, “HERBICIDE COMBINATION COMPRISING DIMETHOXYTRIAZINYL-SUBSTITUTED DIFLUOROMETHANESULFONYLANILIDES” (BAYER CROPSCIENCE AG, priority 2008, published 2010).

Columns and labels:
Assay in all cases: Post-emergence action against weeds, greenhouse pot test
Format in all cases: in vivo
[1] = system: Alopecurus myosuroides (ALOMY); settings: 21 DAT
Procedure: (§1) Seeds or rhizome pieces of mono- and dicotyledonous harmful and useful plants were placed in peat pots (diameter 4 cm) filled with sandy loam and then covered with soil. The pots were kept in a greenhouse under optimum conditions. In addition, harmful plants encountered in paddy rice cultivation were cultivated in pots with a water level 2 cm above the soil surface.
(§2) About three weeks after the start of the cultivation, the test plants were treated at the 2- to 3-leaf stage. The herbicides, formulated as powder or liquid concentrates, were, either alone or in the combinations according to the invention, sprayed in various dosages on to the green parts of the plants using an application rate of 600 l of water/ha (converted). For further cultivation of the plants, the pots were then again kept under optimum conditions in a greenhouse.
(§3) The visual scoring of the herbicidal effects was carried out in intervals up to 21 days after the treatment. Scoring was carried out in percent in comparison to the untreated control plants. 0%=no herbicidal activity, 100%=complete herbicidal activity=complete kill.
(§4) The percentages from the treatments with the herbicides alone (=individual application) and with the combinations according to the invention (=mixtures) were employed to calculate interactions using the method of Colby. When the observed efficacies of the mixtures exceed the formal sum of the values of the tests with individual applications, they also exceed the expected value according to Colby, which is calculated using the formula below (cf. S. R. Colby; in Weeds 15 (1967) pp. 20 to 22):
(§5) • A, B=activity of components A and B in percent at a dosage of a and b g of ai/ha (=gram of active substance per hectare), respectively. • E=expected value in % at a dosage of a+b g of ai/ha.

[2] = system: Oryza sativa (ORYSA)
Procedure: as §1, §2, §3, §4, §5

[3] = system: Setaria viridis (SETVI); settings: 21 DAT; B 50 g of ai/ha
Procedure: as §1, §2, §3, §4, §5

[4] = system: Viola tricolor (VIOTR); settings: 21 DAT; B 50 g of ai/ha
Procedure: as §1, §2, §3, §4, §5

[5] = system: Triticum aestivum (TRZAS)
Procedure: as §1, §2, §3, §4, §5

[6] = system: Zea mays (ZEAMX)
Procedure: as §1, §2, §3, §4, §5

[7] = system: Matricaria inodora (MATIN); settings: 21 DAT; B 50 g of ai/ha
Procedure: as §1, §2, §3, §4, §5

[8] = system: Fallopia (ex Polygonum) convolvulus (POLCO); settings: 21 DAT; B 50 g of ai/ha
Procedure: as §1
as §2, with “greenhouse. […]” for “greenhouse.”
as §4, with “22): […]” for “22):”

Compound	% activity found ([1]; B 50 g of ai/ha)	% activity found ([1]; B 150 g of ai/ha)	% activity found ([2]; 10/21 DAT, B 50 g of ai/ha)	% activity found ([2]; 10/21 DAT, B 150 g of ai/ha)	% activity found ([2]; 21 DAT, B 150 g of ai/ha)	% activity found [3]	% activity found [4]	% activity found ([5]; 10 DAT, B 50 g of ai/ha)	% activity found ([5]; 10 DAT, B 150 g of ai/ha)	% activity found ([5]; 21 DAT, B 50 g of ai/ha)	% activity found ([6]; 10 DAT, B 50 g of ai/ha)	% activity found ([6]; 10 DAT, B 150 g of ai/ha)	% activity found ([6]; 21 DAT, B 50 g of ai/ha)	% activity found ([6]; 21 DAT, B 150 g of ai/ha)	% activity found [7]	% activity found [8]	% activity found ([2]; 10/21 DAT, A 4 g of ai/ha)	% activity found ([5]; 21 DAT, A 12 g of ai/ha)	% activity found ([6]; 21 DAT, A 4 g of ai/ha)
CP(=O)(O)CC[C@H](N)C(=O)O [B1-8, (2S)-2-amino-4-[hydroxy(methyl)phosphinyl]butanoic acid]	0%	20%	10%	30%	30%	80%	40%	20%	30%	20%	30%	40%	0%	0%	60%	40%	–	–	–
COc1nc(OC)nc(C(=O)c2cccc(F)c2N(C)S(=O)(=O)C(F)F)n1 [A-1]	–	–	–	–	–	–	–	–	–	–	–	–	–	–	–	–	0%	0%	0%
